Measured values as given in PubChem BioAssay (NCI).
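These data come from cells grown in 96-well plates and exposed to compound for 48 hours at five concentrations. GI50 is the concentration that inhibits growth by half. TGI is the concentration that stops growth completely.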

How the values were obtained:
Test in all cases: NCI tumour cell line growth inhibition, 48 h
MCF7 breast = test system: MCF7 breast
RXF 393 renal = test system: RXF 393 renal
M14 melanoma = test system: M14 melanoma
BT-549 breast = test system: BT-549 breast
NCI-H522 lung = test system: NCI-H522 lung
HOP-92 NSCLC = test system: HOP-92 NSCLC
NCI-H226 lung = test system: NCI-H226 lung
SN12C renal = test system: SN12C renal
OVCAR-4 ovarian = test system: OVCAR-4 ovarian
A498 renal = test system: A498 renal
UO-31 renal = test system: UO-31 renal
PC-3 prostate = test system: PC-3 prostate
HCT-116 colon = test system: HCT-116 colon
U251 CNS = test system: U251 CNS
MDA-MB-231 breast = test system: MDA-MB-231 breast
T-47D breast = test system: T-47D breast
CAKI-1 renal = test system: CAKI-1 renal
OVCAR-8 ovarian = test system: OVCAR-8 ovarian
SNB-19 CNS = test system: SNB-19 CNS
NCI-H23 lung = test system: NCI-H23 lung
SK-MEL-28 melanoma = test system: SK-MEL-28 melanoma
SK-MEL-5 melanoma = test system: SK-MEL-5 melanoma
HS 578T breast = test system: HS 578T breast
SF-268 CNS = test system: SF-268 CNS
CCRF-CEM leukemia = test system: CCRF-CEM leukemia
UACC-62 melanoma = test system: UACC-62 melanoma
786-0 renal = test system: 786-0 renal
NCI-H460 lung = test system: NCI-H460 lung
DU-145 prostate = test system: DU-145 prostate
SF-295 CNS = test system: SF-295 CNS
SF-539 CNS = test system: SF-539 CNS
ACHN renal = test system: ACHN renal
OVCAR-3 ovarian = test system: OVCAR-3 ovarian
HCT-15 colon = test system: HCT-15 colon
RPMI-8226 leukemia = test system: RPMI-8226 leukemia
MDA-MB-435 = test system: MDA-MB-435
HOP-62 NSCLC = test system: HOP-62 NSCLC
SK-OV-3 ovarian = test system: SK-OV-3 ovarian
UACC-257 melanoma = test system: UACC-257 melanoma
SW-620 colon = test system: SW-620 colon
NCI/ADR-RES ovarian = test system: NCI/ADR-RES ovarian
K-562 leukemia = test system: K-562 leukemia
OVCAR-5 ovarian = test system: OVCAR-5 ovarian
SR leukemia = test system: SR leukemia
LOX IMVI melanoma = test system: LOX IMVI melanoma
SNB-75 CNS = test system: SNB-75 CNS
HT29 colon = test system: HT29 colon
MOLT-4 leukemia = test system: MOLT-4 leukemia
COLO 205 colon = test system: COLO 205 colon
IGROV1 ovarian = test system: IGROV1 ovarian
A549 NSCLC = test system: A549 NSCLC
TK-10 renal = test system: TK-10 renal
KM12 colon = test system: KM12 colon
MALME-3M melanoma = test system: MALME-3M melanoma
EKVX NSCLC = test system: EKVX NSCLC
HCC-2998 colon = test system: HCC-2998 colon
SK-MEL-2 melanoma = test system: SK-MEL-2 melanoma

Work on `Cc1ccc(NC(=O)Nc2nc3ccc([N+](=O)[O-])cc3s2)cc1` yielded a GI50 (MCF7 breast) of 1.99 µM, a TGI (MCF7 breast) of 7.77 µM and a GI50 (RXF 393 renal) of 2.01 µM. The TGI (RXF 393 renal) was 5.75 µM, the GI50 (M14 melanoma) was 2.92 µM and the TGI (M14 melanoma) was 10.6 µM. The GI50 (BT-549 breast) was 2.02 µM, the TGI (BT-549 breast) was 5.88 µM and the GI50 (NCI-H522 lung) was 1.14 µM. For the same compound, the TGI (NCI-H522 lung) was 5.21 µM, the GI50 (HOP-92 NSCLC) was 1.37 µM and the TGI (HOP-92 NSCLC) was 5.44 µM. It also gave a GI50 (NCI-H226 lung) of 2.75 µM, a TGI (NCI-H226 lung) of 12.3 µM and a GI50 (SN12C renal) of 2.54 µM. The TGI (SN12C renal) was 12.5 µM, the GI50 (OVCAR-4 ovarian) was 1.41 µM and the TGI (OVCAR-4 ovarian) was 9.32 µM. For the same compound, the GI50 (A498 renal) was 1.41 µM, the TGI (A498 renal) was 4.38 µM and the GI50 (UO-31 renal) was 2.51 µM. For the same compound, the TGI (UO-31 renal) was 10.5 µM, the GI50 (PC-3 prostate) was 2.14 µM and the TGI (PC-3 prostate) was 8.83 µM. For the same compound, the GI50 (HCT-116 colon) was 1.79 µM, the TGI (HCT-116 colon) was 5.22 µM and the GI50 (U251 CNS) was 2.34 µM. It also gave a TGI (U251 CNS) of 10.9 µM, a GI50 (MDA-MB-231 breast) of 3.04 µM and a TGI (MDA-MB-231 breast) of 10.3 µM. It also gave a GI50 (T-47D breast) of 0.799 µM, a TGI (T-47D breast) of 6.4 µM and a GI50 (CAKI-1 renal) of 1.79 µM. It also gave a TGI (CAKI-1 renal) of 6.23 µM, a GI50 (OVCAR-8 ovarian) of 3.2 µM and a TGI (OVCAR-8 ovarian) of 14 µM. It also gave a GI50 (SNB-19 CNS) of 2.7 µM, a TGI (SNB-19 CNS) of 13.4 µM and a GI50 (NCI-H23 lung) of 1.89 µM. The TGI (NCI-H23 lung) was 6.78 µM, the GI50 (SK-MEL-28 melanoma) was 3.1 µM and the TGI (SK-MEL-28 melanoma) was 15.1 µM. It also gave a GI50 (SK-MEL-5 melanoma) of 1.42 µM, a TGI (SK-MEL-5 melanoma) of 3.51 µM and a GI50 (HS 578T breast) of 3.02 µM. The TGI (HS 578T breast) was 13.9 µM, the GI50 (SF-268 CNS) was 3.52 µM and the TGI (SF-268 CNS) was 16 µM. The GI50 (CCRF-CEM leukemia) was 2.13 µM, the TGI (CCRF-CEM leukemia) was 7.71 µM and the GI50 (UACC-62 melanoma) was 2.77 µM. It also gave a TGI (UACC-62 melanoma) of 13.7 µM, a GI50 (786-0 renal) of 2.89 µM and a TGI (786-0 renal) of 12.4 µM. It also gave a GI50 (NCI-H460 lung) of 2.84 µM, a TGI (NCI-H460 lung) of 10.4 µM and a GI50 (DU-145 prostate) of 3.26 µM. For the same compound, the TGI (DU-145 prostate) was 11.7 µM, the GI50 (SF-295 CNS) was 1.92 µM and the TGI (SF-295 CNS) was 5.21 µM. For the same compound, the GI50 (SF-539 CNS) was 3.15 µM, the TGI (SF-539 CNS) was 10.4 µM and the GI50 (ACHN renal) was 2.78 µM. The TGI (ACHN renal) was 11.4 µM, the GI50 (OVCAR-3 ovarian) was 2.43 µM and the TGI (OVCAR-3 ovarian) was 9.63 µM. It also gave a GI50 (HCT-15 colon) of 2.37 µM, a TGI (HCT-15 colon) of 9.19 µM and a GI50 (RPMI-8226 leukemia) of 1.26 µM. It also gave a TGI (RPMI-8226 leukemia) of 3.77 µM, a GI50 (MDA-MB-435) of 2.32 µM and a TGI (MDA-MB-435) of 9.33 µM. For the same compound, the GI50 (HOP-62 NSCLC) was 3.1 µM, the TGI (HOP-62 NSCLC) was 10.7 µM and the GI50 (SK-OV-3 ovarian) was 2.91 µM. It also gave a TGI (SK-OV-3 ovarian) of 10.1 µM, a GI50 (UACC-257 melanoma) of 1.82 µM and a TGI (UACC-257 melanoma) of 6.78 µM. The GI50 (SW-620 colon) was 2.93 µM, the TGI (SW-620 colon) was 10.7 µM and the GI50 (NCI/ADR-RES ovarian) was 2.5 µM. For the same compound, the TGI (NCI/ADR-RES ovarian) was 7.79 µM, the GI50 (K-562 leukemia) was 1.44 µM and the TGI (K-562 leukemia) was 9.56 µM. For the same compound, the GI50 (OVCAR-5 ovarian) was 4.32 µM, the TGI (OVCAR-5 ovarian) was 18.3 µM and the GI50 (SR leukemia) was 1.29 µM. For the same compound, the TGI (SR leukemia) was 5.06 µM, the GI50 (LOX IMVI melanoma) was 2.36 µM and the TGI (LOX IMVI melanoma) was 5.96 µM. For the same compound, the GI50 (SNB-75 CNS) was 1.95 µM, the TGI (SNB-75 CNS) was 6.27 µM and the GI50 (HT29 colon) was 3.28 µM. For the same compound, the TGI (HT29 colon) was 11.6 µM, the GI50 (MOLT-4 leukemia) was 2.09 µM and the TGI (MOLT-4 leukemia) was 6.33 µM. For the same compound, the GI50 (COLO 205 colon) was 1.91 µM, the TGI (COLO 205 colon) was 3.84 µM and the GI50 (IGROV1 ovarian) was 3.59 µM. It also gave a TGI (IGROV1 ovarian) of 14.3 µM, a GI50 (A549 NSCLC) of 2.79 µM and a TGI (A549 NSCLC) of 10.5 µM. The GI50 (TK-10 renal) was 2.94 µM, the TGI (TK-10 renal) was 11.6 µM and the GI50 (KM12 colon) was 2.45 µM. For the same compound, the TGI (KM12 colon) was 8.15 µM, the GI50 (MALME-3M melanoma) was 2.66 µM and the TGI (MALME-3M melanoma) was 7.71 µM. The GI50 (EKVX NSCLC) was 2.75 µM, the TGI (EKVX NSCLC) was 10.9 µM and the GI50 (HCC-2998 colon) was 2.6 µM. The TGI (HCC-2998 colon) was 10.1 µM, the GI50 (SK-MEL-2 melanoma) was 2.19 µM and the TGI (SK-MEL-2 melanoma) was 6.03 µM.
